Measurements published in US20230309554A1, “Polymer Carriers for Delivery of Agrochemicals in Crop Plants” (Carnegie Mellon University, priority 2020, published 2023).

Assays:
[1] = test system: tomato leaves; conditions: in vivo
Experimental: Tracer loading into star polymers. To load CV into star polymers, 10 mg of star polymer was dissolved into 5 mL of Milli Q water with pH adjusted to 7.5 by adding aliquots of 0.1M HCl and 0.1 M NaOH. 2 mg of CV was added into the star polymer solution and the mixture was vortex mixed for 24 h. The resulting solution was dialyzed against 2 L of Milli Q water for 2 cycles to remove free CV. After dialysis, the sample volume was adjusted to 20 mL to get a 0.5 g L^−1 CV loaded star polymer solution. Spreading agent Silwet L-77 was added into the star polymer solution at 0.1% (v/v) before foliar application. 20 μL of the CV loaded star polymer was applied onto tomato leaves by drop deposition.
This enhanced resolution dark-field microscope system (BX51, Olympus, USA) was equipped with a 150 W halogen light source (Fiber-Lite, Dolan-Jenner, USA) and a hyperspectral camera (CytoViva hyperspectral imaging system 1.4). […] Hyperspectral images were acquired using 100% light source intensity and 0.1 to 0.25 s acquisition per line and corrected for the lamp contribution. […]
RSP uptake and distribution in tomato leaves. RSP interactions with the plant leaf after foliar application was assessed by dark field hyperspectral imaging (DF-HSI) of crystal violet (CV) loaded RSP in tomato leaves. […]

[2] = test system: tomato plants; experiment: Leaf carbon assimilation and chlorophyll fluorescence under combined heat and excess light stress; type: in vivo, Solanum lycopersicum; conditions: after heat and light stress 1.5 h
Experimental: Plant growth. […] The sterilized seeds were germinated in petri-dish on water-soaked filter paper under dark for 10 days. Afterwards, the seedlings were transplanted to 100 mL plastic cups. Each seedling was grown hydroponically using 1⁄4 strength Hoagland's solution aerated using air pumps. […] Leaf carbon assimilation rate and chlorophyll fluorescence. Plant leaf carbon assimilation and chlorophyll fluorescence was measured by a Li-Cor Li-6800 portable photosynthesis system. […] Combined heat and excess light stress. The carbon (A-Ci) and light response (A-PAR) curves of treated leaves were measured before stress conditions. […] The carbon and light response curves were measured again and compared with the curve acquired before stress. […] Light adapted ([…]) chlorophyll fluorescent test were also performed before and after stress conditions. The A-Ci curves were analyzed according to previously reported model for C3 plants: […]

Structure (SMILES)	Location in tomato leaf [1]	Photosynthesis enhancement compared to control leaves [2]
CN(C)c1ccc(C(=C2C=CC(=[N+](C)C)C=C2)c2ccc(N(C)C)cc2)cc1 [CV, crystal violet]	primarily found on the leaf epidermis, with a limited amount inside the mesophyll	
[Cl-].[Cl-].[Mg+2] [Mg^2+]		No significant photosynthesis enhancement
